The record followed here is ChEMBL document CHEMBL1201862, “PubChem BioAssay data set” (2004).

Activity calls are given as the source filed them.

The target of assay [1] is Calcium/calmodulin-dependent protein kinase type II subunit delta (Homo sapiens, UniProt Q13557). Type of assay: functional.
In assay [2] the target is Serine/threonine-protein kinase D3 (Homo sapiens, UniProt O94806). It is filed as functional.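 Also: determined within a kinase panel screen, with PRKCN as the panel member.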
For the next assay, the target named is Ephrin type-A receptor 2 (Homo sapiens, UniProt P29317). It is filed as functional.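 Also: EPHA2 tested as one member of a kinome-wide kinase panel.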
Ephrin type-A receptor 2, sequence (P29317 whole entry): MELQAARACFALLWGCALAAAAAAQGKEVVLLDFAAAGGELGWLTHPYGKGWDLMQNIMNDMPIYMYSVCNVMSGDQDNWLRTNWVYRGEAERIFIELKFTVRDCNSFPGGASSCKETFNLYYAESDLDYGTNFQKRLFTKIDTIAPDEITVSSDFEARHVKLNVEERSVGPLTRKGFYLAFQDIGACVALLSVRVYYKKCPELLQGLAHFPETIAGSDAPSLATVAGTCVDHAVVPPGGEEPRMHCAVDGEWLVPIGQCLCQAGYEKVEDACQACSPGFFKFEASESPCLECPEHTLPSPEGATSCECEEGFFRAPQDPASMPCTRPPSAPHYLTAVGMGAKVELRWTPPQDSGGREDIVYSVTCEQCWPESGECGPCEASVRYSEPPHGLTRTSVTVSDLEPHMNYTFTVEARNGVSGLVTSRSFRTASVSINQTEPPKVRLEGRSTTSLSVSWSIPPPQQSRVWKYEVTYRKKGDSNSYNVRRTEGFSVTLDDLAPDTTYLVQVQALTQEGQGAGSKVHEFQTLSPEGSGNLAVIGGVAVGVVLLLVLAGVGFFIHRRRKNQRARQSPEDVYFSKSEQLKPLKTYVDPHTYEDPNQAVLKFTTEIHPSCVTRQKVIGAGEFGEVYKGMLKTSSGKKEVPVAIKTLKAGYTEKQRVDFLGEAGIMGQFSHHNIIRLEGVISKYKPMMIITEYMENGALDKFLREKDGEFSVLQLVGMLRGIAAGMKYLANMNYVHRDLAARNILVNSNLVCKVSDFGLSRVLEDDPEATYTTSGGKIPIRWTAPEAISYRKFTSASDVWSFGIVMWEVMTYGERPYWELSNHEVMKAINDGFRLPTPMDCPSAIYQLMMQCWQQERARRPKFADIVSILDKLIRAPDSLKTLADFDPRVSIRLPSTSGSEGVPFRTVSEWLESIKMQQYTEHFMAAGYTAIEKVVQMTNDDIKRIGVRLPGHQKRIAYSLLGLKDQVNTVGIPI
The target in assay [3] is Fibroblast growth factor receptor 1 (Homo sapiens, UniProt P11362). Type of assay: functional.
The target in assay [4] is Serine/threonine-protein kinase DCLK1 (Homo sapiens, UniProt O15075). Type of assay: functional.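 Also: affinity for DCLK1 (listed as DCAMKL1) measured as one member of a kinome-wide kinase profiling panel.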
A further assay has as its target Aurora kinase B (Homo sapiens, UniProt Q96GD4). Type of assay: functional.
Assay [5] addresses Mitogen-activated protein kinase kinase kinase 20 (Homo sapiens, UniProt Q9NYL2). Type of assay: functional.
The target of assay [6] is Homeodomain-interacting protein kinase 4 (Homo sapiens, UniProt Q8NE63). Type of assay: functional.
The target of assay [7] is Tyrosine-protein kinase SYK (Homo sapiens, UniProt P43405). Type of assay: functional.
Assay [8] addresses Testis-specific serine/threonine-protein kinase 1 (Homo sapiens, UniProt Q9BXA7). It is filed as functional.
The target in assay [9] is 3-phosphoinositide-dependent protein kinase 1 (Homo sapiens, UniProt O15530). Type of assay: functional.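 Also: value comes from the Navigating the Kinome panel, PDPK1 member.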
In assay [10] the target is Casein kinase I isoform delta (Homo sapiens, UniProt P48730). It is filed as functional.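 Also: measured as one member (CSNK1D) of a kinome panel.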
The target of assay [11] is Serine/threonine-protein kinase PAK 1 (Homo sapiens, UniProt Q13153). Type of assay: functional.
Assay [12] concerns the target Protein kinase C delta type (Homo sapiens, UniProt Q05655). Type of assay: functional.
Assay [13] has as its target Tyrosine-protein kinase Fer (Homo sapiens, UniProt P16591). Type of assay: functional.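 Also: FER tested as one member of a kinome panel.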
Assay [14] concerns the target Protein kinase C iota type (Homo sapiens, UniProt P41743). Type of assay: functional.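 Also: measured within a kinome-wide kinase panel, PRKCI as panel member.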
Assay [15] addresses Serine/threonine-protein kinase pim-1 (Homo sapiens, UniProt P11309). Type of assay: functional.
In assay [16] the target is Dual specificity tyrosine-phosphorylation-regulated kinase 3 (Homo sapiens, UniProt O43781). It is filed as functional.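 Also: measured as one member of a broad kinase panel.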
Dual specificity tyrosine-phosphorylation-regulated kinase 3, sequence (O43781 whole entry): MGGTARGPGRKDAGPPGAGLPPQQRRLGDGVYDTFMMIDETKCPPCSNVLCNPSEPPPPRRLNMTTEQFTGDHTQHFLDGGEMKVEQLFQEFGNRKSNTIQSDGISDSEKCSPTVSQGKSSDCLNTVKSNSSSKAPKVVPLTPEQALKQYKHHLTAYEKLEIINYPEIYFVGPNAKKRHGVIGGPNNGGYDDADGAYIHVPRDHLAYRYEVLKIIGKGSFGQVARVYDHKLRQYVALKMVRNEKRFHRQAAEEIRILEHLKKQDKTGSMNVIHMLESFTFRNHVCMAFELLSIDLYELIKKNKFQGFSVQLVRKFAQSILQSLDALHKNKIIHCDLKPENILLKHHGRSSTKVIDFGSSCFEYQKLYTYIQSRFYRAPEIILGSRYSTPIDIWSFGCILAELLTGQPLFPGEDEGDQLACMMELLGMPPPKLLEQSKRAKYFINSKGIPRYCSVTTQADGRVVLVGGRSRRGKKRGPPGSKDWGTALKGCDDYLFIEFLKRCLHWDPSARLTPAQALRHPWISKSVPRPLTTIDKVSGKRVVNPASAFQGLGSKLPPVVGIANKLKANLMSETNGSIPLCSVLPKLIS
For assay [17], the target named is Megakaryocyte-associated tyrosine-protein kinase (Homo sapiens, UniProt P42679). Type of assay: functional.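 Also: affinity measured as one member of a kinase panel (Navigating the Kinome) against MATK.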
Megakaryocyte-associated tyrosine-protein kinase, sequence (P42679 whole entry): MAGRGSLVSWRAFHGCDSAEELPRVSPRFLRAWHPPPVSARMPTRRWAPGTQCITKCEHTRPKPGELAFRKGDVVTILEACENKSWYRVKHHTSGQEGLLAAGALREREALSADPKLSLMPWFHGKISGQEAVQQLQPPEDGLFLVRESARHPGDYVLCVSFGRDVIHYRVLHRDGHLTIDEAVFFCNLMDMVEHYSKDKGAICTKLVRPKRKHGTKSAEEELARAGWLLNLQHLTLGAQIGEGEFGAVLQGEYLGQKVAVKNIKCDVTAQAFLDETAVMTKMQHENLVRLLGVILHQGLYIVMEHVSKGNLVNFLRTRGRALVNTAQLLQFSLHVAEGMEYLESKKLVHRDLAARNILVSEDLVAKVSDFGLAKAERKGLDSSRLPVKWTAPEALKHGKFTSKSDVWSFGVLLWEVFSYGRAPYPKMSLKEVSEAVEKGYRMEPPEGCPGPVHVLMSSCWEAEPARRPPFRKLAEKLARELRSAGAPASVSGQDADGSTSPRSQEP
Assay [18] addresses Fibroblast growth factor receptor 3 (Homo sapiens, UniProt P22607). Type of assay: functional.
Assay [19] addresses cGMP-dependent protein kinase 1 (Homo sapiens, UniProt Q13976). It is filed as functional.
In assay [20] the target is RAC-gamma serine/threonine-protein kinase (Homo sapiens, UniProt Q9Y243). Type of assay: functional.
RAC-gamma serine/threonine-protein kinase, sequence (Q9Y243 whole entry): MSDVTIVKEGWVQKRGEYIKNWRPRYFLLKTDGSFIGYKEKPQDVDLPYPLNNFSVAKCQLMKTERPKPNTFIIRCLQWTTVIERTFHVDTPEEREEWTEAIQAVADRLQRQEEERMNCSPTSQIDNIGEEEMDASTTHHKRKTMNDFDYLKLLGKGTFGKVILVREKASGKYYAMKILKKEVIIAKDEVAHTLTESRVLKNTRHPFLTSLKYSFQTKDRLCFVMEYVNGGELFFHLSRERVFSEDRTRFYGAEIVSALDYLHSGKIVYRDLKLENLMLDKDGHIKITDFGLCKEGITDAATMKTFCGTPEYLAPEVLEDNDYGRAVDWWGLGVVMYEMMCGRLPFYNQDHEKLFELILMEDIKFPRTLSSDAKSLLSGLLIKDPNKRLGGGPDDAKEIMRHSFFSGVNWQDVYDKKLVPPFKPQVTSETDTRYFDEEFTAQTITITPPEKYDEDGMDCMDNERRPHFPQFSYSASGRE
The target of assay [21] is T1, Histone-lysine N-methyltransferase NSD2 (Homo sapiens, UniProt O96028).
T1 sequence (O96028 whole entry): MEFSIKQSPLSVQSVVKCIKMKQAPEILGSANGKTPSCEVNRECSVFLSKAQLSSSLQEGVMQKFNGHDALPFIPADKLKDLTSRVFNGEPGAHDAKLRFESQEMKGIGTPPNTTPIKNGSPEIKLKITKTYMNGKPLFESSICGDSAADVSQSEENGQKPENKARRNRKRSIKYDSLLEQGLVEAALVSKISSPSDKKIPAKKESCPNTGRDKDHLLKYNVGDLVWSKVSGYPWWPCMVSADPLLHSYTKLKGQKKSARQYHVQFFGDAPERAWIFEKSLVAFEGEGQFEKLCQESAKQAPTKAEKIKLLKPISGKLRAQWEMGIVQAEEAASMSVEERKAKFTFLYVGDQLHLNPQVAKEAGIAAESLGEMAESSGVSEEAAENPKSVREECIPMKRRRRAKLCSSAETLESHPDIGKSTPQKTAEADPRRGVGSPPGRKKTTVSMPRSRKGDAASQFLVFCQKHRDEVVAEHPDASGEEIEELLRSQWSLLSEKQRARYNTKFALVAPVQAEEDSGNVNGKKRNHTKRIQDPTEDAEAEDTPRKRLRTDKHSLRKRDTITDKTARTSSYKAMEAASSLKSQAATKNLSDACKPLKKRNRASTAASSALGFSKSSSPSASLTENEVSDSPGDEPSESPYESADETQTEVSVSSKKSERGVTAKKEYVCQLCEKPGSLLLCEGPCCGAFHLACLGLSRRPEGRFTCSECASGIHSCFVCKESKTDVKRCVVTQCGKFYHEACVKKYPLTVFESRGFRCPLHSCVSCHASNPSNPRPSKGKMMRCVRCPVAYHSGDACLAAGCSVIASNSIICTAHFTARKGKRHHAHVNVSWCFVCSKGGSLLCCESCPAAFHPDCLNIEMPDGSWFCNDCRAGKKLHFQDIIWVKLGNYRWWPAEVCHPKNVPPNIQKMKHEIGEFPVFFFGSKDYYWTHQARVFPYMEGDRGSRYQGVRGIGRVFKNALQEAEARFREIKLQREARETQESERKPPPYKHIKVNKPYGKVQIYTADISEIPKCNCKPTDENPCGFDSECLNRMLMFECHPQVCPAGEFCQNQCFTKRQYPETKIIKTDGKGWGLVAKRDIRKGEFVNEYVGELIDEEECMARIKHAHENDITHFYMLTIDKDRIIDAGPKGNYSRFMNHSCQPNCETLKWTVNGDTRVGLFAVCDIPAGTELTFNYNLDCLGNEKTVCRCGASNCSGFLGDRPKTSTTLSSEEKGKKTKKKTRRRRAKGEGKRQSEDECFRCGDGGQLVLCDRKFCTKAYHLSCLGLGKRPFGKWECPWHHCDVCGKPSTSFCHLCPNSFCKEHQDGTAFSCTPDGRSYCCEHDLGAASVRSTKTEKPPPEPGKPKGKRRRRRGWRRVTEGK
Type of assay: biochemical.

Fibroblast growth factor receptor 3, sequence (P22607 whole entry): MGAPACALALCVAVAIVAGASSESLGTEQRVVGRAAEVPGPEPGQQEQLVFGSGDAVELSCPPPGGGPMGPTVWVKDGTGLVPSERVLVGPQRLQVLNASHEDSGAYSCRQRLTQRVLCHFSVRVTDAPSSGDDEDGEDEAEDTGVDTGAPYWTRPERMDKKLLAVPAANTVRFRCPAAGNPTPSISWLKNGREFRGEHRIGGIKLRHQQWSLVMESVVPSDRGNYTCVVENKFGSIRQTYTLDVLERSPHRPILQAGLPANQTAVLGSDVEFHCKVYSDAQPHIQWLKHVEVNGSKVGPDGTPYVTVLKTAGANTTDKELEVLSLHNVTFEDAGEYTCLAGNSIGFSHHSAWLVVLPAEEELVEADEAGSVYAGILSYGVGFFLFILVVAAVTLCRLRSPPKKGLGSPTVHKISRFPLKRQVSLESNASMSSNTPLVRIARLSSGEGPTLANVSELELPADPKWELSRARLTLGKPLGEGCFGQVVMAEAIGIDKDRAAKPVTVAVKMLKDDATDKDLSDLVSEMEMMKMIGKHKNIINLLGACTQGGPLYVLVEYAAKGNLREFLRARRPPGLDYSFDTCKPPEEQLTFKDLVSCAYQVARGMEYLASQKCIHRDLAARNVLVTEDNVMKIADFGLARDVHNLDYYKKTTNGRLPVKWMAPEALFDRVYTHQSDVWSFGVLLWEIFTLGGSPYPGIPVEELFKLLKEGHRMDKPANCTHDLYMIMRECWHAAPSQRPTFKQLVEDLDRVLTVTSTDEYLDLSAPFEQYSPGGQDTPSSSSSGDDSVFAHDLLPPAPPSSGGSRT
Protein kinase C delta type, sequence (Q05655 whole entry): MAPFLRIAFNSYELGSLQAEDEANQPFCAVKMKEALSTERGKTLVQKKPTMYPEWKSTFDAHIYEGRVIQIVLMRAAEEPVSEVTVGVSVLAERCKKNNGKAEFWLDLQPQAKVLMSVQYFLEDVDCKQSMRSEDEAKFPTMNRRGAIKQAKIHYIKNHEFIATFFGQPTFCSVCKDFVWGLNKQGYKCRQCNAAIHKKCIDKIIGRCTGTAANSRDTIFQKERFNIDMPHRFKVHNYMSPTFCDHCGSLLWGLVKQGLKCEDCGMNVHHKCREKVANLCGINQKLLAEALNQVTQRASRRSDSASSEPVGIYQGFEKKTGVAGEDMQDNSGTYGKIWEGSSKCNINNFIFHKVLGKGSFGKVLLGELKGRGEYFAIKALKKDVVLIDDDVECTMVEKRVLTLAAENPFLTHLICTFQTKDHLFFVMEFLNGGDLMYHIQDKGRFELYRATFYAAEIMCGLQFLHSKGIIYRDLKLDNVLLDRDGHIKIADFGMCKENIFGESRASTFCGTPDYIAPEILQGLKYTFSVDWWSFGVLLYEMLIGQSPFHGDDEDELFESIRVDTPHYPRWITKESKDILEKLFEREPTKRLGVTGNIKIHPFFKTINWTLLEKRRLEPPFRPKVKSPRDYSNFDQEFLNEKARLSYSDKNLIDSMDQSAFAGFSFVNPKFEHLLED
Protein kinase C iota type, sequence (P41743 whole entry): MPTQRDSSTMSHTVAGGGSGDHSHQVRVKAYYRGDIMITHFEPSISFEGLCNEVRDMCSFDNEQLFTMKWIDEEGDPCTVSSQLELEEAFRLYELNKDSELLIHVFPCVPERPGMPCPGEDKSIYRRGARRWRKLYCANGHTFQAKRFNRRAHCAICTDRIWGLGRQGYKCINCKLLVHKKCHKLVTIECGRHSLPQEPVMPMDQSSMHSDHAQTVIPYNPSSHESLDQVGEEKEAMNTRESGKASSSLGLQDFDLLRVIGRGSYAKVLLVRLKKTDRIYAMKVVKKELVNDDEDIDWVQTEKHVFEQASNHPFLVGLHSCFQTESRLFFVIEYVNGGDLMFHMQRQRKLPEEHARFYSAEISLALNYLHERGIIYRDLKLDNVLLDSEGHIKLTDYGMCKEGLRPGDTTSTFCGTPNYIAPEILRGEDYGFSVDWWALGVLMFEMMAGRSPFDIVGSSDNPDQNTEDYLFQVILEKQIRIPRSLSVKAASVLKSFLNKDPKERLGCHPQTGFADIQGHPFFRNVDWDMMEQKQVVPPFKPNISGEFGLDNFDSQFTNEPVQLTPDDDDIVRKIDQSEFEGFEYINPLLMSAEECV
Aurora kinase B, sequence (Q96GD4 whole entry): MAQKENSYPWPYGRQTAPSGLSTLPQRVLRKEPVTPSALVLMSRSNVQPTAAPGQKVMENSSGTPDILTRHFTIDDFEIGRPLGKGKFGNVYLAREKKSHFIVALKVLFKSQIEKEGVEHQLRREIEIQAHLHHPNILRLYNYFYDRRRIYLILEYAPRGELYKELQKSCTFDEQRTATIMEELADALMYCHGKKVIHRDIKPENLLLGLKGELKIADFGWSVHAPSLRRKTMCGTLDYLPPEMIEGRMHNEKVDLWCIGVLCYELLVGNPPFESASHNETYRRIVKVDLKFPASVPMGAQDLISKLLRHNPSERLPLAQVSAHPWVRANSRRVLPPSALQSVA

In general, Ki refers to a measure of affinity in units of concentration, obtained from inhibition or displacement. With `Cn1cncc1C(OCc1c(-c2ccc(OC(F)(F)F)cc2)cc(C#N)c(=O)n1C)c1ccc(C#N)cc1` (stereo not drawn), the Ki in assay [1] was > 6.31 µM (inactive); in assay [2] it was > 10 µM (inactive); on Ephrin type-A receptor 2, > 3.16 µM (inactive); in assay [3] it was > 5.01 µM (inactive); in assay [4], > 10 µM (inactive); at Aurora kinase B, 0.158 µM (active). Further, the Ki in assay [5] was > 7.94 µM (inactive); in [6], > 7.94 µM (inactive); in assay [7], > 1.58 µM (inactive); in [8], > 1.58 µM (inactive); in [9], > 3.98 µM (inactive); in assay [10], > 7.94 µM (inactive). Further, the Ki is > 10 µM (inactive) in [11]; > 7.94 µM (inactive) in assay [12]; > 1.58 µM (inactive) in assay [13]; > 5.01 µM (inactive) in [14]; > 10 µM (inactive) in assay [15]; > 6.31 µM (inactive) in assay [16]. The Ki in [17] is > 2 µM (inactive); in assay [18], > 2 µM (inactive); in assay [19] it was > 2 µM (inactive); in [20] it was > 10 µM (inactive).
The term AC50 denotes the concentration giving half of the maximal activity seen. Turning to `CCc1ccc(S(=O)(=O)/N=C2\C=C(NS(=O)(=O)c3ccccc3)C(=O)c3ccccc32)cc1`, the AC50 in assay [21] is 5.4 µM (active).
